Counter-ions that a name gives are not always drawn. Like-named read-outs stand apart in the source and are kept apart here.
Experiments:
[1] = biological target: T1, Human RORγ Ligand Binding Domain (RORγ-LBD) (Homo sapiens, UniProt P51449); test: Dual Fluorescence Energy Transfer (FRET) assay, RORγ-LBD / SRC1(2) co-activator peptide interaction; type: biochemical; settings: mean of multiple test results if tested more than once; read-out: pIC50 in the dual FRET assay (converted)
T1 construct: made in house; host or cells: E. coli BL21(DE3), modified pET21a
T1 sequence (P51449 263-518): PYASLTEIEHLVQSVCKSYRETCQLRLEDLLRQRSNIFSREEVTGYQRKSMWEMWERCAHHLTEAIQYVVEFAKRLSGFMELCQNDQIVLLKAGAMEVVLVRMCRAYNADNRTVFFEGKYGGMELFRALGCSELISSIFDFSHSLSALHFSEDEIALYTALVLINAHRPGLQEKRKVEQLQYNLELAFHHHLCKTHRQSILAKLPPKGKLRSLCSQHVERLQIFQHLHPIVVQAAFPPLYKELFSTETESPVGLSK
Source text: This assay is based on the knowledge that nuclear receptors interact with cofactors (transcription factors) in a ligand dependent manner. RORγ is a typical nuclear receptor in that it has an AF2 domain in the ligand binding domain (LBD) which interacts with co-activators.
The assay measures ligand-mediated interaction of the co-activator peptide with the purified bacterial-expressed RORγ ligand binding domain (RORγ-LBD) to indirectly assess ligand binding. RORγ has a basal level of interaction with the co-activator SRC1(2) in the absence of ligand, thus it is possible to find ligands that inhibit or enhance the RORγ/SRC1(2) interaction.
Human RORγ Ligand Binding Domain (RORγ-LBD) was expressed in E.coli strain BL21(DE3) as an amino-terminal polyhistidine tagged fusion protein. DNA encoding this recombinant protein was sub-cloned into a modified pET21a expression vector (Novagen).
Approximately 50 g E. coli cell pellet was resuspended in 300 mL of lysis buffer (30 mM imidazole pH 7.0 and 150 mM NaCl). Cells were lysed by sonication and cell debris was removed by centrifugation for 30 minutes at 20,000 g at 4° C. […] The clarified lysate was loaded onto a column (XK-26) packed with ProBond Nickel Chelating resin (Invitrogen), pre-equilibrated with 30 mM imidazole pH 7.0 and 150 mM NaCl. After washing to baseline absorbance with the equilibration buffer, the column was developed with a gradient from 30 to 500 mM imidazole pH 7.0. Column fractions containing the RORγ-LBD protein were pooled and concentrated to a volume of 5 mls. The concentrated protein was loaded onto a Superdex 200 column pre-equilibrated with 20 mM Tris-CI pH 7.2 and 200 mM NaCl. The fractions containing the desired RORγ-LBD protein were pooled together.
Purified RORγ-LBD was buffer exchanged by exhaustive dialysis [3 changes of at least 20 volumes (>8000x)] against PBS [100mM NaPhosphate, pH 8 and 150mM NaC1]. […] The modified protein was distributed into aliquots, frozen on dry ice and stored at −80° C. The biotinylated RORγ-LBD was subjected to mass spectrometric analysis to reveal the extent of modification by the biotinylation reagent.
An appropriate amount of Europium labeled Streptavidin was then added to the biotinylated SRC1(2) solution in a tube to give a final concentration of 10 nM. The tube was inverted gently and incubated for 15 minutes at room temperature. Twenty-fold excess biotin from the 10 mM stock solution was added and the tube was inverted gently and incubated for 10 minutes at room temperature.
Preparation of APC labeled RORγ-LBD: biotinylated RORγ-LBD solution was prepared by adding an appropriate amount of biotinylated RORγ-LBD from the stock solution to a buffer containing 10 mM of freshly added DTT from solid to give a final concentration of 40 nM. An appropriate amount of APC labeled Streptavidin was then added to the biotinylated RORγ-LBD solution in a tube to give a final concentration of 20 nM. The tube was inverted gently and incubated for 15 minutes at room temperature. Twenty-fold excess biotin from the 10 mM stock solution was then added and the tube was inverted gently and incubated for 10 minutes at room temperature.
The reaction mixtures were incubated for 5 minutes. […] The plates were incubated for lhr and then read on ViewLux in Lance mode for EU/APC.

Mouse CD4+ cells = test: Th17 cell differentiation assay (IL-17 ELISA); type: cell-based
Protocol: Mouse CD4+cells were purified using the CD4+ T Cell Isolation II Kit according to manufacturer's instructions (Miltenyi Biotec). 96 well plates were pre-coated with anti-mCD3 antibody. Un-coated wells were used as controls. CD4+ Cells were resuspended in RPMI 1640 complete medium and were added to the 96-well plates. Cytokine cocktail and the compound were then added to the wells. Antibodies and cytokines (all from R&D Systems) used in the assay were selected from the following: anti-mCD3; anti-mCD28; anti-mIFNγ; anti-mIL4; mIL-6; mIL-23; mIL-1β; hTGF-β1. The culture was incubated at 37° C. for 3 days and supernatants were collected for ELISA. The IL-17 ELISAs were performed according to manufacturer's instructions (R&D Systems). The results were analyzed using Prism software with non-linear regression to determine pIC50.

[2] = tested on: Experimental Autoimmune Encephalomyelitis (EAE); test: EAE studies (Experimental Autoimmune Encephalomyelitis); type: in vivo, mice of the C57BL/6 (B6) strain; settings: orally twice a day from day 0; for EAE onset and clinical score: effect starting at 3, 10 or 30 mg/kg; for EAE onset: 30 mg/kg
[3] = In vitro percutaneous study (Franz diffusion cells, aqueous cream); type: in vitro ADME, human; settings: 1.0% w/w in aqueous cream pH=6, 5 mg/cm^2, human skin from three donors
Source text: The in vitro percutaneous study is aimed to predict the level of percutaneous penetration obtained for a compound in a topical formulation for psoriasis. This assay coupled with the intrinsic potency of the compound are used to predict the likelihood of success of a compound to engage the target. The higher the ratio of the percutaneous penetration to the intrinsic potency, the higher the ratio of local skin concentration to the intrinsic potency and therefore the higher the chance of a compound to engage the target in a topical formulation.
The compounds were manufactured in a modified aqueous cream at pH=6.
The study was conducted with dermatomed abdominal human skin sourced from three skin donors using 2 cm2 Franz diffusion cells. The receiving fluid consisted of Bovine serum albumin (4% w/v) in 0.1% w/v sodium azide in Phospate Buffer Saline and was heated at 37° C. in order to obtain 32° C. at the skin surface. The cream formulation was applied on the donor side at a 10 mg dose, i.e. 5 mg/cm^2. The samples taken at the following time points: t=0, 3, 6, 9 and 24 h. The receiver samples were then assayed using a method based upon protein precipitation with acetonitrile followed by LC/MS/MS analysis. The percutaneous flux (in ng/cm^2/hr) was determined using the individual API (in a multiple composition) that had permeated into the receiver compartment over 24 hrs per cm^2.

[4] = 72 h, mean pIC50, IL-17 ELISA, 3 days culture, detection limit of the assay 5, read-out: pIC50 in the Th17 cell differentiation assay (converted)

Compound	IC50 [1] [nM]	IC50 (Mouse CD4+ cells; [4]) [nM]	other results
Cc1ccc(C(=O)Nc2cc(F)cc(CN3CCN(C(=O)[C@H]4C[C@@H](C)C4)[C@@H](C)C3)c2C)cn1 [Example 185, N-(5-fluoro-2-methyl-3-(((S)-3-methyl-4-((cis)-3-methylcyclobutanecarbonyl)piperazin-1-yl)methyl)phenyl)-6-methylnicotinamide]	~79.4	~20.9	
Cc1ncc(C(=O)Nc2cc(Cl)cc(CN3CCN(C(=O)C4CCCC4)[C@@H](C)C3)c2C)cn1 [Example 192, (S)-N-(5-chloro-3-((4-(cyclopentanecarbonyl)-3-methylpiperazin-1-yl)methyl)-2-methylphenyl)-2-methylpyrimidine-5-carboxamide]		~7.94	EAE onset and clinical score [2]: delay EAE onset and lower clinical score
Cc1ncc(C(=O)Nc2cc(F)cc(CN3CCN(C(=O)C4CCCC4)[C@@H](C)C3)c2C)cn1 [Example 20, (S)-N-(3-((4-(cyclopentanecarbonyl)-3-methylpiperazin-1-yl)methyl)-5-fluoro-2-methylphenyl)-2-methylpyrimidine-5-carboxamide]	~100	~31.6	EAE onset and clinical score [2]: delay EAE onset and lower clinical score
Cc1ccc(C(=O)Nc2cc(Cl)cc(CN3CCN(C(=O)[C@H]4C[C@H](C)C4)[C@@H](C)C3)c2C)cn1 [Example 188, N-(5-chloro-2-methyl-3-(((S)-3-methyl-4-((trans)-3-methylcyclobutanecarbonyl)piperazin-1-yl)methyl)phenyl)-6-methylnicotinamide]	~63.1	~8.71	
Cc1cc(C(=O)Nc2cc(Cl)cc(CN3CCN(C(=O)C4CCCC4)[C@@H](C)C3)c2C)ccn1 [Example 187, (S)-N-(5-chloro-3-((4-(cyclopentanecarbonyl)-3-methylpiperazin-1-yl)methyl)-2-methylphenyl)-2-methylisonicotinamide]	~126	~3.16	
Cc1c(NC(=O)c2ccc[nH]c2=O)ccc(F)c1CN1CCN(C(=O)C2CCCC2)[C@@H](C)C1 [Example 129, (S)-N-(3-((4-(cyclopentanecarbonyl)-3-methylpiperazin-1-yl)methyl)-4-fluoro-2-methylphenyl)-2-oxo-1,2-dihydropyridine-3-carboxamide, trifluoroacetic acid salt]		> 10000	
Cc1ccc(C(=O)Nc2cc(F)cc(CN3CCN(C(=O)C4CC(C)(C)C4)[C@@H](C)C3)c2C)cn1 [Example 164, (S)-N-(3-((4-(3,3-dimethylcyclobutanecarbonyl)-3-methylpiperazin-1-yl)methyl)-5-fluoro-2-methylphenyl)-6-methylnicotinamide]			Flux over 24 hrs [3]: 3.12 ng/cm^2/hr; IC50 (Mouse CD4+ cells; table with percutaneous study, read-out: Th17 cell differentiation assay IC50): 9.3 ng/mL; IC50 (Mouse CD4+ cells; table with percutaneous study, read-out: Th17 cell differentiation assay pIC50 (converted)): 20 nM
Cc1ccc(C(=O)Nc2cc(Cl)cc(CN3CCN(C(=O)CC4CC4)[C@@H](C)C3)c2C)cn1 [Example 184, (S)-N-(5-chloro-3-((4-(2-cyclopropylacetyl)-3-methylpiperazin-1-yl)methyl)-2-methylphenyl)-6-methylnicotinamide]	~200	~83.2	EAE onset and clinical score [2]: delay EAE onset and lower clinical score
Cc1ccc(C(=O)Nc2cc(Cl)cc(CN3CCN(C(=O)C4CCCC4)[C@@H](C)C3)c2C)cn1 [Example 62, (S)-N-(5-chloro-3-((4-(cyclopentanecarbonyl)-3-methylpiperazin-1-yl)methyl)-2-methylphenyl)-6-methylnicotinamide]			EAE onset [2]: delay EAE onset
Cc1ccc(C(=O)Nc2cc(F)cc(CN3CCN(C(=O)[C@H]4C[C@H](C)C4)[C@@H](C)C3)c2C)cn1 [Example 186, N-(5-fluoro-2-methyl-3-(((S)-3-methyl-4-((trans)-3-methylcyclobutanecarbonyl)piperazin-1-yl)methyl)phenyl)-6-methylnicotinamide]	~79.4	~37.2	
Cc1ncc(C(=O)Nc2cc(Cl)cc(CN3CCN(C(=O)[C@H]4C[C@H](C)C4)[C@@H](C)C3)c2C)cn1 [Example 191, N-(5-chloro-2-methyl-3-(((S)-3-methyl-4-((trans)-3-methylcyclobutanecarbonyl)piperazin-1-yl)methyl)phenyl)-2-methylpyrimidine-5-carboxamide, trifluoroacetic acid salt]	~251	~26.3	EAE onset [2]: delay EAE onset
Cc1c(CN2CCN(C(=O)C3CC(F)(F)C3)[C@@H](C)C2)cc(F)cc1NC(=O)c1cccc(C#N)c1 [Example 175, (S)-3-cyano-N-(3-((4-(3,3-difluorocyclobutanecarbonyl)-3-methylpiperazin-1-yl)methyl)-5-fluoro-2-methylphenyl)benzamide, trifluoroacetic acid salt]			EAE onset and clinical score [2]: delay EAE onset and lower clinical score
Cc1ncc(C(=O)Nc2cc(Cl)cc(CN3CCN(C(=O)[C@H]4C[C@@H](C)C4)[C@@H](C)C3)c2C)cn1 [Example 190, N-(5-chloro-2-methyl-3-(((S)-3-methyl-4-((cis)-3-methylcyclobutanecarbonyl)piperazin-1-yl)methyl)phenyl)-2-methylpyrimidine-5-carboxamide, trifluoroacetic acid salt]	~158	~12.9	EAE onset [2]: delay EAE onset
Cc1ccc(C(=O)Nc2cc(Cl)cc(CN3CCN(C(=O)[C@H]4C[C@@H](C)C4)[C@@H](C)C3)c2C)cn1 [Example 189, N-(5-chloro-2-methyl-3-(((S)-3-methyl-4-((cis)-3-methylcyclobutanecarbonyl)piperazin-1-yl)methyl)phenyl)-6-methylnicotinamide]	~50.1	~5.13	

— patent US10005731B2, “Modulators of the retinoid-related orphan receptor gamma (ROR-gamma) for use in the treatment of autoimmune and inflammatory diseases” (Glaxo Group Limited, priority 2012, dated 2018)
